Series [1] deals with Serine/threonine-protein kinase PINK1, mitochondrial (Homo sapiens) (UniProt Q9BXM7). As to the kind of experiment: Activation of PINK1 in human HeLa cells stably expressing YFP parkin assessed as reduction in dOTC protein accumulation and measured by ornithine carbamoyltransferase (DOTC) assay relative to control. The series is classed as cell-based. As to conditions: filed as activator.

For series [2] the target is unchanged. Kind of series: Activation of PINK1 in human HeLa MKYP cells expressing PINK1 treated with FCCP/oilgomycin assessed as increase in parkin recruitment and measured by ELISA assay. The series is classed as cell-based. As to conditions: filed as activator. (In an ELISA, binding on a coated surface is turned into a signal by an enzyme label.)
The test system of series [3] is Mus musculus. As to the kind of experiment: Protection against preformed alpha-synuclein amyloid fibril (PFF) in C57BL/6 mouse model assessed as decrease in pS129 monomer of alpha-synuclein in ipsilateral striatum at 5 to 50 mg/kg, po administered daily for 28 days. It is filed as functional, organism-based. As to conditions: dose 5-50 mg/kg, time 28.0 day.
In series [4] the target is Serine/threonine-protein kinase PINK1, mitochondrial (Homo sapiens) (UniProt Q9BXM7). As to the kind of experiment: Activation of PINK1 in human HeLa MKYP PINK1-knock out cells treated with FCCP/oilgomycin assessed as increase in parkin recruitment and measured by ELISA assay. It is filed as cell-based.
The test system of series [5] is Mus musculus. Kind of series: Protection against preformed alpha-synuclein amyloid fibril (PFF) in C57BL/6 mouse model assessed as decrease in total monomer of alpha-synuclein in ipsilateral striatum at 5 to 50 mg/kg, po administered daily for 28 days. The series is classed as functional, organism-based. As to conditions: dose 5-50 mg/kg, time 28.0 day.
Series [6] has as its system Mus musculus. As to the kind of experiment: Protection against preformed alpha-synuclein amyloid fibril (PFF) in C57BL/6 mouse model assessed as decrease in all species of alpha-synuclein in ipsilateral striatum at 5 to 50 mg/kg, po administered daily for 28 days. It is filed as functional, organism-based. As to conditions: dose 5-50 mg/kg, time 28.0 day.
Series [7] concerns Mus musculus. Kind of series: Protection against preformed alpha-synuclein amyloid fibril (PFF) in C57BL/6 mouse model assessed as decrease in C-terminal truncation of alpha-synuclein in ipsilateral striatum at 5 to 50 mg/kg, po administered daily for 28 days. It is filed as functional, organism-based. As to conditions: dose 5-50 mg/kg, time 28.0 day.
Series [8] has as its target Serine/threonine-protein kinase PINK1, mitochondrial (Homo sapiens) (UniProt Q9BXM7). Kind of series: Activation of PINK1 in human HeLa MKYP cells expressing PINK1 treated with FCCP/oilgomycin assessed as increase in pS65 Ub and measured by ELISA assay. The series is classed as cell-based. As to conditions: filed as activator.
Series [9] shares this target. Kind of series: Activation of PINK1 in human iPSC derived neurons at 3.1 to 6.2 uM assessed as reduction in pS129 alpha-synuclein. As to conditions: Neuron, filed as activator, dose 3.1-6.2 µM. The series is classed as cell-based.
In series [10] the test system is Mus musculus. Kind of series: Protection against preformed alpha-synuclein amyloid fibril (PFF) in C57BL/6 mouse model assessed as decrease in all species of alpha-synuclein in ventral midbrain at 5 to 50 mg/kg, po administered daily for 28 days. The series is classed as functional, organism-based. As to conditions: dose 5-50 mg/kg, time 28.0 day.
The test system of series [11] is HeLa. Kind of series: Induction of mitophagy in human HeLa MKYP PINK1-knockout cells treated with FCCP/oligomycin for 6 hrs and measured by FACS analysis. The series is classed as functional, cell-based.
Series [12] has as its system Mus musculus. As to the kind of experiment: Protection against cisplatin-induced mitochondrial dysfunction in mouse assessed as decrease in GDF15 expression at 20 to 50 mg/kg, po administered daily. It is filed as functional, organism-based. As to conditions: dose 20-50 mg/kg.
Series [13] has as its system HeLa. Kind of series: Induction of mitophagy in human HeLa MKYP cells expressing wild-type PNIK1 treated with FCCP/oligomycin for 6 hrs and measured by FACS analysis. The series is classed as functional, cell-based.
Series [14] addresses Serine/threonine-protein kinase PINK1, mitochondrial (Homo sapiens) (UniProt Q9BXM7). As to the kind of experiment: Activation of PINK1 in human HeLa MKYP PINK1-knock out cells treated with FCCP/oilgomycin assessed as increase in pS65 Ub and measured by ELISA assay. The series is classed as cell-based.
The test system of series [15] is Mus musculus. As to the kind of experiment: Protection against preformed alpha-synuclein amyloid fibril (PFF) in C57BL/6 mouse model assessed as decrease in all species of alpha-synuclein in contralateral striatum at 5 to 50 mg/kg, po administered daily for 28 days. As to conditions: dose 5-50 mg/kg, time 28.0 day. The series is classed as functional, organism-based.

For series [16], the target named is Serine/threonine-protein kinase PINK1, mitochondrial (Homo sapiens) (UniProt Q9BXM7). Kind of series: Activation of PINK1 in human HeLa MKYP PINK1-knock out cells at 3.125 to 6.25 uM assessed as reduction in pS129 alpha-synuclein. As to conditions: dose 3.125-6.25 µM. The series is classed as cell-based.
A short description of series [17]: Induction of mitophagy in human HeLa MKYP cells treated with FCCP/oligomycin for 6 hrs and measured by FACS analysis. It is filed as functional, cell-based. A general note: Flow cytometry measures light scatter and fluorescence of single cells or particles in a stream.
In series [18] the test system is HeLa. Kind of series: Cytotoxicity against human HeLa MKYP cells assessed as percentage of DAPI-positive cells at 50 uM and measured by DAPI staining method. It is filed as toxicity, cell-based.
For series [19], the system named is HeLa. As to the kind of experiment: Cytotoxicity against human HeLa MKYP cells assessed as cell death at 25 uM treated with FCCP/oliogmycin and measured DAPI staining method assay relative to control. It is filed as toxicity, cell-based.
The nature of series [20]: Ratio of highest compound concentration with no observable mitotoxicity to EC50 of compound to induce mitophagy in human HeLa MKYP cells. It is filed as functional.
The test system of series [21] is HeLa. As to the kind of experiment: Cytotoxicity against human HeLa MKYP cells assessed as cell death at 25 uM and measured DAPI staining method assay relative to control. The series is classed as toxicity, cell-based.
Series [22] can be described thus: Solubility of compound in PBS. It is filed as physicochemical.

In brackets after ≈: the same amount, converted by molar mass. Activity calls are given as the source filed them. The rule behind the calls is not given here.

Sequence of Serine/threonine-protein kinase PINK1, mitochondrial (Homo sapiens) (Q9BXM7 whole entry): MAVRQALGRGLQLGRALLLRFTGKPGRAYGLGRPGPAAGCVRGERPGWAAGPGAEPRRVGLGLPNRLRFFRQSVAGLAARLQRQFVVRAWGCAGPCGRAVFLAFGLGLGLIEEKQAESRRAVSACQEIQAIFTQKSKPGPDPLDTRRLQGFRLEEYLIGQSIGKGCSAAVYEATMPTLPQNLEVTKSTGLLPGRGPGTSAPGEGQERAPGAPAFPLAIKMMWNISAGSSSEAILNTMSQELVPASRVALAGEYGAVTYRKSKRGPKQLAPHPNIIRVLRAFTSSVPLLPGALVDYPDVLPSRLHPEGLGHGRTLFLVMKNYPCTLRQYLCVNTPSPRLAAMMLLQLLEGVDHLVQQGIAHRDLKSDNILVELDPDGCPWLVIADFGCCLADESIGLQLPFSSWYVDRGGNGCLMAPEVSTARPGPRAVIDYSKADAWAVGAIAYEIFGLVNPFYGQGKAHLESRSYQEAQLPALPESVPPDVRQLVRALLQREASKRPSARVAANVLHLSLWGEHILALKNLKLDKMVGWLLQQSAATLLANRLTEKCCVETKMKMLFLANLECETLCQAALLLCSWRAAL

Consider `FC(F)(F)c1cc2c(NC3CCCc4ccccc43)ncnc2[nH]1` (stereo in doubt), for which the result in [1], in series [2], in series [3], in series [5], in [6] and in [7] was Active. Further, the outcome in series [8], in series [9], in series [10], in series [12], in series [13] and in [15] was Active. The result in [4], in [11], in [14] and in [16] was inactive.
A word on the EC50: it is the concentration giving half of the maximal effect. A low value points to greater potency. A word on the solubility: it is how much of the substance goes into solution per volume. A high value points to much dissolved substance. Consider `C[C@H]1CCc2ccccc2[C@@H]1Nc1ncnc2[nH]c(C(F)(F)F)cc12`, for which it took 600 nM to reach a half-maximal effect in series [17] (EC50). For the same compound, the Activity in series [18] is reported as 13.3%; in series [19] it was 13.32%; in series [21], 3.79%. In series [20], the Ratio is recorded as 8.69. This compound also displayed a solubility in [22] of 1 µM (≈ 0.346 µg/mL).
For `c1ccc2c(c1)CCC[C@H]2Nc1ncnc2[nH]c(C3CC3)cc12`, the EC50 in series [17] came to 470 nM. In addition, the Activity is 16.6% in series [18], 14.9% in series [19] and 9.32% in [21]. Besides, the Ratio in series [20] is recorded as 53.2. The same compound came in with a solubility in series [22] of 1 µM (≈ 0.304 µg/mL).

Values taken from ChEMBL document CHEMBL5050850, “Compositions and methods of using the same for treatment of neurodegenerative and mitochondrial disease” (2020).
